Results: publication PMC8126888 (RSC Medicinal Chemistry, 2020)
Values after ≈ are worked out from the molar mass of the structure shown. Like-named read-outs stand apart in the source and are kept apart here.

Experiments:
[1] = test system: primary peritoneal mouse macrophages (PMM); test: cells; details: Macrophage, read-out: PMM IC50
[2] = in vitro; details: human, microsomes, pH 7.4, HLM CLint, human liver microsomes
[3] = in vitro; details: mouse, microsomes, pH 7.4, MLM CLint, mouse liver microsomes
[4] = physchem; details: PBS, pH 7.4, aqueous buffer, kinetic from dmso stock
[5] = in vitro; details: human, THP-1 cells differentiated with PMA
[6] = in vitro; details: human
[7] = in vitro; details: human, HepG2 cells
[8] = test system: Leishmania infantum MHOM/MA(BE)/67/ITMAP263 intracellular amastigotes; test: microbe, parasite or virus in culture; details: Macrophage, in Mus musculus
[9] = test system: axenic L. don. amastigotes (MHOM/SD/62/1S-CL2, LdBOB); test: microbe, parasite or virus in culture; details: Leishmania donovani, read-out: L. donovani MHOM/SD/62/1SCL2D axenic-cidal amastigotes IC50
[10] = test system: Trypanosoma cruzi, Tulahuen CL2, beta-galactosidase strain; test: microbe, parasite or virus in culture; details: MRC5, read-out: T. cruzi Tulahuen C4 (LacZ) IC50
[11] = test system: L. donovani MHOM/SD/62/1SCL2D intracellular amastigotes; test: microbe, parasite or virus in culture; details: Leishmania donovani, read-out: L. donovani MHOM/SD/62/1SCL2D intracellular amastigotes IC50
[12] = test system: L. donovani MHOM/ET/67/L82 intracellular amastigotes; test: microbe, parasite or virus in culture; details: Leishmania donovani, read-out: L. donovani MHOM/ET/67/L82 intracellular amastigotes IC50
[13] = physchem; details: HPLC, Ascentis Express RP Amide column, pH 7.4, eLogD, experimental
[14] = in vitro; details: human, HFF-1 cells
[15] = in vitro; details: human, HepG2 cells; remark: listed apart in the source
[16] = in vitro; details: PAMPA
[17] = test system: L. infantum MHOM/MA/67/ITMAP263 axenic Promastigotes; test: microbe, parasite or virus in culture; details: Leishmania infantum, read-out: L. infantum MHOM/MA/67/ITMAP263 axenic Promastigotes IC50
[18] = read-out: L. Inf. pIC50 (converted)
[19] = read-out: L. infantum MHOM/MA(BE)/67/ITMAP263 intracellular amastigotes IC50
[20] = read-out: L. Inf. pIC50, from L. infantum intracellular amastigote IC50 (converted)
[21] = read-out: L. infantum MHOM/MA(BE)/67/ITMAP263 intracellular amastigotes IC50, intracellular amastigotes

With `CCCCCOc1cc(C)c(C)cc1S(=O)(=O)NC1CCCC1` [DNDI0002550647] the “KS PBS - pH 2” value was 0.74 ug/mL, the IC50 [1] was 45.2 µM and the microsomal CLint at 0.5 μM [2] was 567 µL/min/mg. For the same compound, the microsomal CLint at 0.5 μM [3] was 416 µL/min/mg, the solubility kinetic [4] was 0.56 µg/mL (≈ 1.65 µM) and the CC50 at 120 h [5] was > 50 µM. The CC50 at 3 days [6] was 37 µM, the CC50 [7] was > 50 µM and the IC50 [8, 18] was 1.05 µM. For the same compound, the IC50 [8, 19] was 1.05 µM, the IC50 [9] was 12 µM and the IC50 [10] was 7.86 µM. The IC50 [11] was 13 µM.
For `CCCCCOc1cc(C)c(Cl)cc1S(=O)(=O)NCc1ccco1` [DNDI0002567970], the IC50 [1] was > 32 µM, the CC50 at 120 h [5] was > 50 µM and the CC50 at 3 days [6] was 11.7 µM. The CC50 [7] was > 50 µM, the IC50 [8, 18] was 1.07 µM and the IC50 [8, 19] was 1.08 µM. For the same compound, the IC50 [12] was 4.76 µM, the IC50 [9] was 12 µM and the IC50 [11] was 48 µM.
With `CCCCCOc1cc(C)c(Cl)cc1S(=O)(=O)NCc1cccs1` [DNDI0002572712] the “KS PBS - pH 2” value was 0.39 ug/mL, the IC50 [1] was 40.3 µM and the microsomal CLint at 0.5 μM [2] was 693 µL/min/mg. The microsomal CLint at 0.5 μM [3] was 693 µL/min/mg, the solubility kinetic [4] was 0.39 µg/mL (≈ 1.01 µM) and the CC50 at 120 h [5] was > 50 µM. For the same compound, the CC50 at 3 days [6] was 44.1 µM, the CC50 [7] was 40 µM and the IC50 [8, 18] was 0.851 µM. For the same compound, the IC50 [8, 19] was 0.85 µM, the IC50 [9] was 4.4 µM and the IC50 [10] was 12.2 µM. It also gave an IC50 [11] of 12 µM.
With `CCCCOc1cc(C)c(Cl)cc1S(=O)(=O)NCc1cccs1` [DNDI0002620367] the IC50 [1] was > 32 µM, the CC50 at 120 h [5] was > 50 µM and the CC50 at 3 days [6] was 4.56 µM. For the same compound, the CC50 [7] was > 50 µM, the IC50 [8, 18] was 0.794 µM and the IC50 [8, 19] was 0.79 µM. It also gave an IC50 [12] of 5.38 µM, an IC50 [9] of 11 µM and an IC50 [11] of 22 µM.
In the case of `CCCOc1cc(C)c(C)cc1S(=O)(=O)NCC1CCCO1` (centres unmarked) [DNDI0002622936], the IC50 [1] is reported as > 32 µM, the CC50 at 3 days [6] is reported as > 32 µM and the IC50 [8, 18] is reported as 25.1 µM. For the same compound, the IC50 [8, 19] was 25.4 µM, the IC50 [12] was > 32 µM and the IC50 [10] was > 32 µM.
With `COc1ccc(OC)c(S(=O)(=O)N(Cc2ccc(F)cc2)c2ccc(F)cn2)c1` [DNDI0003370085] the IC50 [1] was > 64 µM, the microsomal CLint at 0.5 μM [2] was 230 µL/min/mg and the microsomal CLint at 0.5 μM [3] was 1990 µL/min/mg. The chromatographic logD [13] was 3.5, the CC50 at 3 days [6] was > 64 µM and the CC50 [14] was 15 µM. It also gave a CC50 [15] of 16.4 µM, a Papp [16] of 7.1 ×10⁻⁶ cm/s and an IC50 [8, 20] of 41.7 µM. For the same compound, the IC50 [8, 21] was 41.9 µM, the IC50 [10] was 5.17 µM and the IC50 [17] was 33 µM.
With `O=C1c2ccccc2S(=O)(=O)N(Cc2ccccc2)C1Cc1ccccc1` (centres unmarked) [DNDI0003370098] the IC50 [1] was > 64 µM, the microsomal CLint at 0.5 μM [2] was 141 µL/min/mg and the microsomal CLint at 0.5 μM [3] was 1060 µL/min/mg. For the same compound, the chromatographic logD [13] was 3.6, the CC50 at 3 days [6] was 30.8 µM and the CC50 [14] was > 64 µM. The CC50 [15] was > 64 µM, the Papp [16] was 4.11 ×10⁻⁶ cm/s and the IC50 [8, 20] was 11.7 µM. For the same compound, the IC50 [8, 21] was 11.7 µM, the IC50 [10] was 9.38 µM and the IC50 [17] was > 64 µM.
Compound `COc1ccc(CN2CCCC2)cc1S(=O)(=O)N(Cc1ccc(F)cc1)Cc1ccc(F)cc1` [DNDI0003370114] has an IC50 [1] of 8 µM, a microsomal CLint at 0.5 μM [2] of 62 µL/min/mg and a microsomal CLint at 0.5 μM [3] of 144 µL/min/mg. The chromatographic logD [13] was 4.4, the CC50 at 3 days [6] was 6.87 µM and the CC50 [14] was 13.8 µM. It also gave a CC50 [15] of 3.25 µM, a Papp [16] of 0.64 ×10⁻⁶ cm/s and an IC50 [8, 20] of 2.95 µM. The IC50 [8, 21] was 2.92 µM, the IC50 [10] was 3.27 µM and the IC50 [17] was 0.72 µM.
With `COc1ccc(OC)c(S(=O)(=O)N(Cc2ncccn2)Cc2ncccn2)c1` [DNDI0003370115] the IC50 [1] was > 64 µM, the microsomal CLint at 0.5 μM [2] was 17 µL/min/mg and the microsomal CLint at 0.5 μM [3] was 67 µL/min/mg. For the same compound, the chromatographic logD [13] was 1.3, the CC50 at 3 days [6] was > 64 µM and the CC50 [14] was > 64 µM. For the same compound, the CC50 [15] was > 64 µM, the Papp [16] was 25.1 ×10⁻⁶ cm/s and the IC50 [8, 20] was > 64 µM. The IC50 [8, 21] was > 64 µM, the IC50 [10] was 61.4 µM and the IC50 [17] was > 64 µM.
